Measurements as given in patent US20230404958A1, “AGENT FOR […] DAMAGE INDUCED BY RHABDOMYOLYSIS” (Niigata University, priority 2021, published 2023).

How the values were obtained:
[1] = biological target: megalin (binding to α1M) (Rattus norvegicus, UniProt P98158); settings: 1 mg/200 μL of cilastatin injected into buffer in advance; FIG. 2-2
Source text: (§1) Binding specificity between megalin and each ligand (myoglobin, α1M, and Hx) and the possible binding inhibition by cilastatin were verified using the quartz crystal microbalance (QCM) method by reference to the method described in PTL 2.

[2] = test system: rhabdomyolysis model mice; settings: 400 mg/kg intraperitoneally; 24 hours after glycerol administration; vs normal saline control group; FIG. 1
[3] = test system: uptake of each ligand into kidney tissues through megalin; settings: cilastatin sodium 400 mg/kg intraperitoneally, urine collected 3 hours
Procedure: Cilastatin was administered to mice and changes in concentrations of each ligand in urine were observed.
Five mice (male, aged 12 weeks C57BL/6) were intraperitoneally administered with 400 mg/kg (diluted in 100 μL of normal saline, cilastatin-treated group) of cilastatin sodium (Sigma-Aldrich Japan K.K., C5743), and then put in a metabolic cage for 3 hours to collect urine, and the urines of 5 mice were combined. Additionally, 100 μL of normal saline was administered to another group of 5 mice (control group), and the same experiment as above was conducted.
Proteins were isolated from the obtained urine samples by electrophoresis (SDS-polyacrylamide gel), reductively alkylated (using dithiothreitol and iodoacetamide), digested with trypsin, and the obtained peptides were extracted to obtain a solid.
To the obtained solid, 15 μL of 0.3% formic acid (FA) was added, shaken for 5 minutes, sonicated for 1 minute, and shaken again for 5 minutes. The resultant mixture was spun down, applied to a membrane filter having a pore diameter of 0.45 μm (ULtra free-MC, HV, 0.45 μm, Millipore), centrifuged at 10,000 rpm for 5 minutes, and the sample passed through the filter was subjected to LCMS analysis.
AnaLyst® TF1.6 (AB SCIEX) was used as an LCMS/MS data acquisition and analysis software, and the obtained raw data were converted to a peak list file (mgf file format), whereby MS/MS Ion Search (MIS search) was conducted using Matrix Science Mascot daemon, Mascot server 2.2.1. The sequence data base used was Uniprot, Swiss-Prot. Significance threshold was set to 0.05 (false discovery rate of less than 5%), and the proteins having 2 or more peptides exceeding the identification standard were listed as identified proteins.
Raw data were acquired 2 times per sample at LCMS to cover the issue of analysis reproducibility at LCMS, and the peak list files obtained from the 2 runs were combined and analyzed using Mascot (Ohara et al., 2018, PLoS One, vol. 13, 1, e0204160).
To the proteins identified in common in 2 groups when compared, the spectral count method was used, which is a label-free comparative, semiquantitative analysis method utilizing a principle that a large number of peptide fragments will be identified in those expressed at high levels, resulting in the increase in the number of MS/MS. In other words, the proteins identified in both of the cilastatin-treated group and control group were calculated for an SpC/L ratio (spectral abundance factor: SAF) of the cilastatin-treated group/control group, and the proteins having an SpC/L ratio of 2.0 or more were listed as the proteins abundant in urine of the cilastatin-treated group.

[4] = biological target: megalin (binding to myoglobin) (Rattus norvegicus, UniProt P98158); settings: 1 mg of cilastatin injected into buffer (200 μL) in advance; FIG. 2-1
Chain of megalin (binding to myoglobin) (P98158 26-4660): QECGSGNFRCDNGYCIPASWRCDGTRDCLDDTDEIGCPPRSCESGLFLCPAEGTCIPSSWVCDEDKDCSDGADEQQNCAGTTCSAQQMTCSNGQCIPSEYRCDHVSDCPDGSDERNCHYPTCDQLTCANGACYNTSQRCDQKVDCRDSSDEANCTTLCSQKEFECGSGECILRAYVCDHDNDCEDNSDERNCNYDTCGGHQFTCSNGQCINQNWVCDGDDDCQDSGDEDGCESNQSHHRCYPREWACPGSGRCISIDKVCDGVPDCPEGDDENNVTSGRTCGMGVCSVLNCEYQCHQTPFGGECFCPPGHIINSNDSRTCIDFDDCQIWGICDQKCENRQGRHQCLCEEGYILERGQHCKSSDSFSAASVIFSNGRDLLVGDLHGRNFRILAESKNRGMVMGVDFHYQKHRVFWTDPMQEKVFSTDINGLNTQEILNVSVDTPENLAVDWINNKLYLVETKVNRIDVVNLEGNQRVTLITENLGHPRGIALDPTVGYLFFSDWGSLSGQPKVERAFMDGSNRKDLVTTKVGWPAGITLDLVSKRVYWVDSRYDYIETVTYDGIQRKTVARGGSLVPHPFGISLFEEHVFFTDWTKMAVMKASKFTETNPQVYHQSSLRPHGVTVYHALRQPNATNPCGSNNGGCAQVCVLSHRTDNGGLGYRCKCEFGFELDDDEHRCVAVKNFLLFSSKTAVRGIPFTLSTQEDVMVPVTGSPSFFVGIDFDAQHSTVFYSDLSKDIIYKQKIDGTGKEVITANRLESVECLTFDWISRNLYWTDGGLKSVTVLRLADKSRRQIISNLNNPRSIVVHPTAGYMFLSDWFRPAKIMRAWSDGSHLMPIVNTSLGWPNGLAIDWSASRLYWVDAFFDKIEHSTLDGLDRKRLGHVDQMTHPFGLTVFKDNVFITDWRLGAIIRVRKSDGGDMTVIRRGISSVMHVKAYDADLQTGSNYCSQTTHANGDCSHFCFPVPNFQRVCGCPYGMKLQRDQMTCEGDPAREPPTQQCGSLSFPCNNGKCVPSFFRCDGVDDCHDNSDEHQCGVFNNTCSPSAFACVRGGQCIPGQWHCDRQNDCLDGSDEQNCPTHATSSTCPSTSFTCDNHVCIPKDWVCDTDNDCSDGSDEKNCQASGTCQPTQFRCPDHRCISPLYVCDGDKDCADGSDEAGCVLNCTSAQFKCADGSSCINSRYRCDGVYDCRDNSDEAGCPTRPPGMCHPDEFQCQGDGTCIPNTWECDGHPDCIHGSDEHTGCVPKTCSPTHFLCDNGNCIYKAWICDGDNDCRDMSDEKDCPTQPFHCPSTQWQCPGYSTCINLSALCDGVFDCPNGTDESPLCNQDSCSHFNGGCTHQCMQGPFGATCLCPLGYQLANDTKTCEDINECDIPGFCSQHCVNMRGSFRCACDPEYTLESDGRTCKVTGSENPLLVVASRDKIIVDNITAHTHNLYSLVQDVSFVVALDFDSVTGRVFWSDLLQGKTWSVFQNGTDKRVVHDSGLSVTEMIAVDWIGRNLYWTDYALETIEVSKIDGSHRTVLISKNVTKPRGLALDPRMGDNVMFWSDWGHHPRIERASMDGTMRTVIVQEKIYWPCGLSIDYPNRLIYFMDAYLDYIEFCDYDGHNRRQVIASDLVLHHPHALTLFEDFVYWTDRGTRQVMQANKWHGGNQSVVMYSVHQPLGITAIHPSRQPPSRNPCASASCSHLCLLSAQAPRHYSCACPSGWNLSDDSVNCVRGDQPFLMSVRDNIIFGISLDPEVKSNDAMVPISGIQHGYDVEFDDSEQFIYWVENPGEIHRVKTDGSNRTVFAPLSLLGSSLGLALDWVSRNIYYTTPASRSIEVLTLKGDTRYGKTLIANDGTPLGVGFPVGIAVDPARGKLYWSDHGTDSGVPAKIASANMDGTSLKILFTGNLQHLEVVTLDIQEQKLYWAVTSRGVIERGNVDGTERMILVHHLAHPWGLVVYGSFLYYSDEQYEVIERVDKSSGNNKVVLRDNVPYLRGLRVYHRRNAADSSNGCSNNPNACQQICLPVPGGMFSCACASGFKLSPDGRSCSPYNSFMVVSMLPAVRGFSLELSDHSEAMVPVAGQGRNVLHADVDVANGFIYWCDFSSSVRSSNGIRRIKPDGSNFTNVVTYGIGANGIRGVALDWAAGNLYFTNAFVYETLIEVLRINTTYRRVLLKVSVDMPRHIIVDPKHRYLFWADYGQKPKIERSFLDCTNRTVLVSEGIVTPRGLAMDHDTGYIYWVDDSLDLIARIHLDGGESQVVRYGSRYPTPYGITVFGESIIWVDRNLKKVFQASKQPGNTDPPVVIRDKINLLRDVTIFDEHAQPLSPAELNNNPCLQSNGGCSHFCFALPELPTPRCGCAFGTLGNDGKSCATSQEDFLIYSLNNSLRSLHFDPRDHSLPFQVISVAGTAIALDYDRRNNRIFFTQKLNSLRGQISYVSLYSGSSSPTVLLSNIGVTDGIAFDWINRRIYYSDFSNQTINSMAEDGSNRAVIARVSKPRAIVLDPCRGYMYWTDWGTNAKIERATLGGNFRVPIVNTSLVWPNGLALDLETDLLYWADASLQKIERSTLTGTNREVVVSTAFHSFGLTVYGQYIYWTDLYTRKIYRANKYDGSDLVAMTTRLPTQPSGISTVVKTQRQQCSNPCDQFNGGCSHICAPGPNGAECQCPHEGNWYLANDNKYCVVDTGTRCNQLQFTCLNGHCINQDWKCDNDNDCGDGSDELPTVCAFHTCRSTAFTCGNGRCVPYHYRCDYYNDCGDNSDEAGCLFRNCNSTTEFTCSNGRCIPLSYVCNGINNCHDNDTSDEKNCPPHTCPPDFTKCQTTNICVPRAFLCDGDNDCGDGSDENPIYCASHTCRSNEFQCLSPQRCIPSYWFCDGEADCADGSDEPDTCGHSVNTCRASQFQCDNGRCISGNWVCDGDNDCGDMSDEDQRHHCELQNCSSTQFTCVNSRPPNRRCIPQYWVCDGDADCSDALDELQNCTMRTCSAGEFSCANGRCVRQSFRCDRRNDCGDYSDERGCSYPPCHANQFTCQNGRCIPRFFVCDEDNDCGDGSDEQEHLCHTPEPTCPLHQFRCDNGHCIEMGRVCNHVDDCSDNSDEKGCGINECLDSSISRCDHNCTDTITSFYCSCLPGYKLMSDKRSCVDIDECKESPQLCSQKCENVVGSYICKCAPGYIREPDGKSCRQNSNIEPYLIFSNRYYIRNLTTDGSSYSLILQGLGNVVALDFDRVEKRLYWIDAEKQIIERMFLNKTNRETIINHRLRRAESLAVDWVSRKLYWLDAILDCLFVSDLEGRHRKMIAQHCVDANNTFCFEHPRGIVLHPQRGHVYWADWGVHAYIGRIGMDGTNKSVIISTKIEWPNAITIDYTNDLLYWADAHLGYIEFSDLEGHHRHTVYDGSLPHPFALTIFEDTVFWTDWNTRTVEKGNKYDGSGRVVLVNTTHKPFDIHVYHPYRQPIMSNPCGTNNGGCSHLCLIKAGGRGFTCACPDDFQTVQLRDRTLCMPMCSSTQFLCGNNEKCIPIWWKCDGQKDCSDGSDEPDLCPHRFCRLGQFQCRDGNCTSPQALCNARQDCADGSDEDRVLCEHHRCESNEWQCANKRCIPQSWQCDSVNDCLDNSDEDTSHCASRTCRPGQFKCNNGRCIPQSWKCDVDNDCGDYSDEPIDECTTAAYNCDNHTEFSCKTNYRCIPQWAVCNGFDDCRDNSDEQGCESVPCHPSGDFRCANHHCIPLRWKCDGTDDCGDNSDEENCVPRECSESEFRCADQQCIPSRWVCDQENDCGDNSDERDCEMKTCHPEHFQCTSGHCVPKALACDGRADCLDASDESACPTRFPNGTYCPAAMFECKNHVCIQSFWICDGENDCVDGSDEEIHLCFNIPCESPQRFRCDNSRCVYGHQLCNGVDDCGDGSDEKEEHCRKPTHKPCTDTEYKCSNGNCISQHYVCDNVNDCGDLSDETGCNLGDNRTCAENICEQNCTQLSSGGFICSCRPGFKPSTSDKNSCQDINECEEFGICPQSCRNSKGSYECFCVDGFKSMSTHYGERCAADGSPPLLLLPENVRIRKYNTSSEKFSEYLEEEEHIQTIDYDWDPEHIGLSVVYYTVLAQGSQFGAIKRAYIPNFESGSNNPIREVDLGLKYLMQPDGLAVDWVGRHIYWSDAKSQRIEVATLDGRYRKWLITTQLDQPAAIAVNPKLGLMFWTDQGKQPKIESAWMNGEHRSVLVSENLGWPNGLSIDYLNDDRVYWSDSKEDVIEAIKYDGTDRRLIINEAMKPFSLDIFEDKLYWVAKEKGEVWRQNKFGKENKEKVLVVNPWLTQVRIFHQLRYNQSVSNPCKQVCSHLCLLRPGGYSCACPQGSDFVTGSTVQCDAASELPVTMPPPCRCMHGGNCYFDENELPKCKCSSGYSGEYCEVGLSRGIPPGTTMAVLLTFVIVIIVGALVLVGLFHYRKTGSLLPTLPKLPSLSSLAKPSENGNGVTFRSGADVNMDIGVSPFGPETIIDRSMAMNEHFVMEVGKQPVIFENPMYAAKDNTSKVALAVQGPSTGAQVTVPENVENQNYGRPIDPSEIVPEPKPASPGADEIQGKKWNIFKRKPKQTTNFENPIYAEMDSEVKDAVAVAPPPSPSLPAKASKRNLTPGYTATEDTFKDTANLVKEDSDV
Source text: as §1
(§2) For the ligands to be verified, myoglobin (LifeSpan Biosciences Inc., Rat […] Native Protein, LS-G11201) and Hx (Sino Biological Inc., Rat Hemopexin/HPX protein (His Tag 81025-R08H)) were used. […]
(§3) After each of the ligand- or BSA-immobilized quartz crystal sensor was mounted in the measurement instrument AFFINIX® Q8 (Initium Inc.) and the frequency was confirmed to be stable, 8 μL of a 0.1 mg/mL solution of megalin purified from Sprague-Dawley (SD) rat kidneys according to the method of Orlando et al. was injected and frequency was measured with time.
(§4) More specifically, the megalin solution was reacted with each of the ligand-immobilized quartz crystal sensors placed under the water surface with 200 μL of buffer, and the frequency was measured.
(§5) Additionally, 1 mg of cilastatin was injected into buffer in advance, each of the ligand-immobilized quartz crystal sensors was mounted in the measurement instrument, and after the frequency was confirmed to be stable, the megalin solution was injected and frequency was measured with time, whereby the antagonistic activity of cilastatin against the binding of each ligand to megalin was analyzed. […]

[5] = biological target: megalin (binding to Hx) (Rattus norvegicus, UniProt P98158); settings: 1 mg of cilastatin injected into buffer (200 μL) in advance; FIG. 2-1
Chain of megalin (binding to Hx) (P98158 26-4660): as above
Source text: as §1, §2, §3, §4, §5

[6] = test system: myoglobin uptake into kidney tissues; settings: rhabdomyolysis model mice; 24 hours after glycerol dosing; anti-myoglobin immunostaining; FIG. 5
Procedure: In line with Test Example 1, 50% glycerol was administered to C57BL/6 (male, aged 10-12 weeks), thereby constructing rhabdomyolysis model mice.
Twenty-four hours after glycerol dosing, a portion containing a kidney pedicle was sliced to 3 mm thickness from the right kidney and fixed with 4% paraformaldehyde phosphate buffer.

[7] = cilastatin-treated group/control group, pooled from 5 mice

Chain of megalin (binding to α1M) (P98158 26-4660): as above

Structure (SMILES): CC1(C)C[C@@H]1C(=O)N/C(=C\CCCCSC[C@H](N)C(=O)O)C(=O)O [cilastatin, (Z)-7-[[(R)-2-Amino-2-carboxyethyl]thio]-2-[[[(S)-2,2-dimethylcyclopropyl]carbonyl]amino]-2-heptenoic acid]
- drop of quartz crystal signals on adding α1M to megalin-immobilized sensor (megalin-α1M binding) [1]: inhibited
- serum potassium [2]: lower values than the control group
- number of urinary proteins having an SpC/L ratio of the cilastatin-treated group/control group of 2.0 or more [3]: 63 kinds
- SpC/L ratio, urinary Albumin [3, 7]: 1.10
- SpC/L ratio, urinary Clusterin [3, 7]: 0.73
- SpC/L ratio, urinary Transthyretin [3, 7]: 1.00
- SpC/L ratio, urinary Vitamin D-binding protein [3, 7]: 0.80
- drop of quartz crystal signals on adding megalin to myoglobin-immobilized sensor (megalin-myoglobin binding) [4]: inhibited
- drop of quartz crystal signals on adding megalin to Hx-immobilized sensor (megalin-Hx binding) [5]: inhibited
- amounts of myoglobin taken up into kidney tissues [6]: reduced
